From paper PMC11587510, “Aromatic Amino Acid Hydroxylases as Off-Targets of Histone Deacetylase Inhibitors” (ACS Chemical Neuroscience, 2024)
“And” between values parts separate entries of the source, which are not always exact repeats. Identical values can stand only once. Like-named read-outs stand apart in the source and are kept apart here.

What was measured:
[1] = molecular target: T1, TPH1 (Homo sapiens, UniProt P17752); assay: Differential scanning fluorimetry (DSF) thermal stability assay; assay type: binding; settings: for Tm (°C) ± SD (°C), primary screen / ΔTm (°C) ± SD (°C), primary screen / ΔTm at 50 µM: DSF, 50 μM compound; for Tm (°C) ± SD (°C), primary screen: 0.075 mg/mL TPH1, 0.5% DMSO, three independent measurements (a: duplicates); for ΔTm (°C) ± SD (°C), primary screen / ΔTm at 50 µM: vs averaged Tm of 0.5% DMSO controls; for Kd: read-out: apparent KD (μM), dose-response; for ΔTm at 50 µM: read-out: ΔTm (°C) ± SD (°C), primary screen
T1 construct: doubly truncated human TPH1 (ΔNH102-ΔCOOH402); made in house; host or cells: E. coli BL21(DE3)
T1 sequence (P17752 102-402): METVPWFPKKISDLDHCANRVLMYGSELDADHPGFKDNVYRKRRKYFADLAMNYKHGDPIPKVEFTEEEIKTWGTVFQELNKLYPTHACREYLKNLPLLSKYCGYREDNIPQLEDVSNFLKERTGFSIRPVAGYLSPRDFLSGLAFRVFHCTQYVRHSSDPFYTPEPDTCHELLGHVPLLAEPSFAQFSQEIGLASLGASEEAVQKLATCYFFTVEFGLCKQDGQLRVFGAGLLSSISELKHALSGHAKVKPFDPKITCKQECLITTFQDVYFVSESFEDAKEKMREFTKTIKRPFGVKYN
Protocol: A fluorescence-based thermal stability assay (differential scanning fluorimetry, DSF) was used for testing the effects of HDIs on the thermal stability of TPH1.
For initial high throughput screening (HTS), compounds were prepared at a concentration of 10 mM (in some cases, 5 mM) in 100% DMSO. Initial HTS screening was performed on TPH1 with and without compounds using a LightCycler 480 Real-Time PCR System (Roche Applied Science). TPH1 was diluted to 0.075 mg/mL in 50 mM Tris pH 8.0, 200 mM NaCl, 0.5 mM TCEP, and 5% glycerol with 5x SYPRO Orange. Compounds were added to a final concentration of 50 μM. Controls with 0.5% DMSO were performed on each 384-well microplate. Unfolding curves were recorded from 20 to 95 °C at a scan rate of 2 °C/min and monitored at excitation = 465 nm and emission = 610 nm. Selected hits were validated further by serial dilution from 250 μM to 122 nM, keeping the DMSO concentration constant at 2%.
DSF data were analyzed using HTSDSF Explorer.[55] Melting temperature (Tm) was calculated from the maximum value of the first derivative of the unfolding curve. ΔTm (Tm with compound–averaged Tm in DMSO controls) was plotted for all validated curves and a threshold of 2 °C was set (typically, cutoff at ΔTm = 3-fold the SD of the Tm of the DMSO control).
Preliminary binding constants (KD) were calculated by fitting data to the equation [drawing 1] where ΔH0 is the enthalpy of the unfolding of the protein in the presence of ligand ([L]), and R is the gas constant.

[2] = Solubility observed in DSF dose-response; assay type: physicochemical; settings: highest concentrations removed before curve fitting
[3] = molecular target: T2, doubly truncated human TPH1 (ΔNH102-ΔCOOH402) (Homo sapiens, UniProt P17752); assay: TPH1 enzyme activity assay (HPLC, 5-OH-Trp); assay type: biochemical; settings: for IC50: best-fit IC50 (± SE), nonlinear regression, N.A. = no activity
T2 construct: doubly truncated human TPH1 (ΔNH102-ΔCOOH402); made in house; host or cells: E. coli BL21(DE3)
T2 sequence (P17752 102-402, stated change not applied): as the sequence (P17752 102-402) above

[4] = molecular target: T3, human TPH2 (Homo sapiens, UniProt Q8IWU9); assay: TPH2 enzyme activity assay (HPLC); assay type: biochemical; settings: best-fit IC50 (± SE), nonlinear regression; N.A. = no activity
T3 construct: Full-length human TH isoform 1 (TH1), human PAH, human TPH2, and doubly truncated human TPH1; MBP (cleaved yes); made in house; host or cells: E. coli BL21(DE3)
T3 sequence (Q8IWU9 1-490): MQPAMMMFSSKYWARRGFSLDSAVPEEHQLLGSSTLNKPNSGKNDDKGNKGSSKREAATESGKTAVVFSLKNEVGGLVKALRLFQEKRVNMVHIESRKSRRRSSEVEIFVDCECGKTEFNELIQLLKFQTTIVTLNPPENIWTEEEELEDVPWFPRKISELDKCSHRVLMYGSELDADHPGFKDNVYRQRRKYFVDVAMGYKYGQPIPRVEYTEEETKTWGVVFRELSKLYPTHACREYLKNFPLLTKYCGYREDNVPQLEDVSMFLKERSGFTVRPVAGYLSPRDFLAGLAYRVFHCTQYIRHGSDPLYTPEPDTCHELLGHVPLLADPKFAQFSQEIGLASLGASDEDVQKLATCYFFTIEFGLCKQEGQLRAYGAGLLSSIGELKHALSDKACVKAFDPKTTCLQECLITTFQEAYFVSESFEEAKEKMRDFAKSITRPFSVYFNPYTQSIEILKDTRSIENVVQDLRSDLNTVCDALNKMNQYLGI

[5] = molecular target: T4, human PAH (Homo sapiens, UniProt P00439); assay: PAH enzyme activity assay (HPLC, L-Tyr); assay type: biochemical; settings: best-fit IC50 (± SE), nonlinear regression, N.A. = no activity
T4 construct: Full-length human TH isoform 1 (TH1), human PAH, human TPH2, and doubly truncated human TPH1; made in house; host or cells: E. coli TB1
T4 sequence (P00439 1-452): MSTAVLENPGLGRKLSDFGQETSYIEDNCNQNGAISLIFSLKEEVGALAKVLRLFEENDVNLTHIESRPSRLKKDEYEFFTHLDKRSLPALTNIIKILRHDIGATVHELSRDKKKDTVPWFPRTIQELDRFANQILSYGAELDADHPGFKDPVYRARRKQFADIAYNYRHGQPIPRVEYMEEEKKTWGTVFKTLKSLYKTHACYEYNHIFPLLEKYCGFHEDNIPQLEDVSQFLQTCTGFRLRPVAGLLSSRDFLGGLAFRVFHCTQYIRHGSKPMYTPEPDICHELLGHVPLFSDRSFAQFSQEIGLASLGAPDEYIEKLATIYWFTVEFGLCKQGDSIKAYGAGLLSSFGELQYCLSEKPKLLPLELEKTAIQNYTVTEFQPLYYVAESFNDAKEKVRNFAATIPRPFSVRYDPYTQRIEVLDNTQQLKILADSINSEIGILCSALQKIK

[6] = molecular target: T5, human TH isoform 1 (TH1) (Homo sapiens, UniProt P07101); assay: TH enzyme activity assay (HPLC, L-DOPA); assay type: biochemical; settings: best-fit IC50 (± SE), nonlinear regression; N.A. = no activity
T5 construct: Full-length human TH isoform 1 (TH1); His6-ZZ fusion partner (one of the two preparations only) (cleaved yes); made in house; host or cells: E. coli BL21(DE3) pLysS (pET3a) or BL21 CodonPlus (pET-ZZ-1a)
T5 sequence (P07101 1-497 isoform P07101-3): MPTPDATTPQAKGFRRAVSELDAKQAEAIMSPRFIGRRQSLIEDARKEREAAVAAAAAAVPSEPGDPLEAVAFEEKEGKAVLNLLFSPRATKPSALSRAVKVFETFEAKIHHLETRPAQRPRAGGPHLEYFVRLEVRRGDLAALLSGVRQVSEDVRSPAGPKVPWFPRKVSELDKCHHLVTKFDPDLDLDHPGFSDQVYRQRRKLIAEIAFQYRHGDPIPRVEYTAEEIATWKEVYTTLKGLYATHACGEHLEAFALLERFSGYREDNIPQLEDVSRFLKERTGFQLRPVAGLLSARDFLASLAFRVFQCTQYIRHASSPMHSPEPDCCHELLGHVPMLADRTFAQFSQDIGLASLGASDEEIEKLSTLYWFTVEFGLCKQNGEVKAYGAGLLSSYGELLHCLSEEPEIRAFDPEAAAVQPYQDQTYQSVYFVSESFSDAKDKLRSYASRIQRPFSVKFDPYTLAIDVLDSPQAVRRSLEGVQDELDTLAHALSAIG
Protocol: The activity of purified PAH, TH, TPH1, and TPH2 was measured using high-performance liquid chromatography (HPLC) as previously described.[50],[56],[57]
TH activities were performed in a standard reaction mixture containing 40 mM Hepes (pH 7.0), 0.1 mg/mL catalase, 10 μM ferrous ammonium sulfate, and 50 μM L-Tyr. Compounds were incubated with TH (0.01 mg/mL) in the reaction mixture for 10 min on ice. The enzymatic reaction was initiated by adding 200 μM BH4 and 2 mM DTT (final concentrations) and stopped by precipitation with 2% (v/v) acetic acid in ethanol after 5 min at 37 °C. The product, L-DOPA, was quantified by HPLC utilizing a fluorescence monitor set at 281 and 314 nm for excitation and emission, respectively.
GraphPad Prism (version 10; La Jolla, CA) was used for analyzing the enzyme inhibition data.

[7] = molecular target: T6, human recombinant HDAC1 (Homo sapiens, UniProt Q13547); assay: HDAC1 activity assay (homogeneous fluorescence, ZMAL); assay type: biochemical; settings: 1.11–30 μM compound, DMSO (5%) control
T6 construct: purchased BPS Bioscience 50051
T6 sequence (Q13547 whole entry): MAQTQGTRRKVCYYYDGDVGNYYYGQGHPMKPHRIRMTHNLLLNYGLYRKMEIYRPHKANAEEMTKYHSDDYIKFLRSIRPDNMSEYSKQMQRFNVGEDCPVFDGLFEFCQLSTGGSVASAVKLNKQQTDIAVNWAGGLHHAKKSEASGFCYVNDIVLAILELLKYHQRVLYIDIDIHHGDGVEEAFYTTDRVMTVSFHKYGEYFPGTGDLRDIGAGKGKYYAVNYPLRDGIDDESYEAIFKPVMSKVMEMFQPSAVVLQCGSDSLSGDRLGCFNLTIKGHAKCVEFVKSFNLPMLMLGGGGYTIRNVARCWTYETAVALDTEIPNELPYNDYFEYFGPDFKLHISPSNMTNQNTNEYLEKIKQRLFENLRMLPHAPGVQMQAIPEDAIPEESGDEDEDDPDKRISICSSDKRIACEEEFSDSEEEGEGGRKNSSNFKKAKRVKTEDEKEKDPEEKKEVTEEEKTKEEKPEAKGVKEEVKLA

[8] = tested on: HDAC 8; settings: human recombinant HDAC; ref 1 (PMID: 26443078); cited from earlier work
[9] = tested on: HDAC 1; settings: human recombinant HDAC; ref 5 (10.1021/acs.jmedchem.8b01090); cited from earlier work
[10] = tested on: HDAC 6; settings: human recombinant HDAC; ref 5 (10.1021/acs.jmedchem.8b01090); cited from earlier work
[11] = estimated from DSF dose-response, 2% DMSO

Row | Tm (°C) ± SD (°C), primary screen [1] | ΔTm (°C) ± SD (°C), primary screen [1] | Kd [1, 11] | Structure (SMILES) | other results
1 | 59.1 ± 0.5 ^a °C | 3.6 ± 0.3 °C | > 100 µM | O=C(NO)c1ccc(CN2c3ccccc3Sc3ccccc32)cc1 [KV46, 4-[(10H-phenothiazin-10-yl)methyl]-N-hydroxybenzamide] | solubility at the highest concentrations [2]: solubility issues
2 | 59.7 ± 0.4 °C | 4.4 ± 0.4 °C | 0.7 µM and 1.4 µM | O=C(NO)c1cc2ccccc2[nH]1 [TB74, 1H-Indole-2-hydroxamic acid] | inhibition of TPH1 activity at 50 μM ([3]; compound 50 μM, 0.5% DMSO): no significant inhibition; solubility at the highest concentrations [2]: solubility issues
3 | 58.1 ± 0.3 °C | 2.8 ± 0.1 °C | 76.3 µM | O=C(NO)c1cccc(NCc2ccccc2)c1 [TH28, 3-N-Benzylamino-benzohydroxamate] | –
4 | 58.0 ± 0.3 °C | 2.7 ± 0.0 °C | – | COC(=O)[C@H](Cc1ccc(-c2ccc(C)cc2)cc1)NC(=O)CCCCCCC(=O)NO [SW189] | –
5 | 57.0 ± 0.2 °C | 1.6 ± 0.1 °C | 54.6 µM | COc1ccc(C(=O)NO)cc1OCc1ccccc1 [PZ031, 3-Benzyloxy-4-methoxybenzhydroxamic acid] | –
6 | 60.0 ± 0.3 °C | 4.7 ± 0.1 °C | 1.8 µM | COc1ccc(C(=O)NO)cc1NS(=O)(=O)c1ccc(C)cc1 [TH71, 3-(N-para-touluenyl)-sulfonamido-4-methoxy-benzohydroxamate] | –

Continued, compound first:

Row | Structure (SMILES) | Tm (°C) ± SD (°C), primary screen [1] | ΔTm (°C) ± SD (°C), primary screen [1] | Kd [1, 11] | other results
7 | Nc1ccccc1NC(=O)c1ccc(CNC(=O)OCc2cccnc2)cc1 [entinostat, reference compound] | 56.0 ± 0.4 °C | – | – | ΔTm at 50 µM [1]: 0.7 ± 0.3 °C
8 | CC(C)c1cccc(=O)c(O)c1 [β-thujaplicin, reference compound] | – | – | – | effect of increasing compound concentration on the Tm of TPH1 ([1]; DSF dose-response): concentration-dependent shift by decreasing the Tm; ΔTm at 50 µM [1]: -1.7 ± 0.1 °C; apparent KD (μM), dose-response [1, 11]: very low affinity; IC50 [3]: 12.6 µM; inhibition at 50 µM ([3]; compound 50 μM, 0.5% DMSO): > 50%; IC50 [4]: 12.9 µM; IC50 ([5]; read-out: IC50 (μM) PAH): 0.46 µM and 0.5 µM; IC50 [6]: 1.37 µM and 1.4 µM
9 | Cc1ccn(-c2cc(Cl)ccc2[C@@H](Oc2cc(-c3ccc(C[C@H](N)C(=O)O)cc3)nc(N)n2)C(F)(F)F)n1 [telotristat] | – | – | – | IC50 ([5]; read-out: IC50 (μM) PAH): 4.9 µM; IC50 [6]: 4.2 µM; effect on HDAC1 activity [7]: do not inhibit
10 | N[C@@H](Cc1ccc(Cl)cc1)C(=O)O [L-PCPA, 4-chloro-L-phenylalanine] | – | – | – | effect on HDAC1 activity [7]: do not inhibit
11 | Oc1ccccc1-c1nc2ccccc2o1 [2-(2-OH-phenyl)benzoxazol, 2-(2-hydroxyphenyl)benzoxazole, reference compound] | 57.6 ± 0.7 °C | – | – | ΔTm at 50 µM [1]: 2.3 ± 0.9 °C
12 | Cc1cc2cc(NS(=O)(=O)c3cc(C(=O)NO)ccc3Cl)ccc2n(C)c1=O [EG29, 4-Chloro-3-[(1,3-dimethyl-2-oxo-1,2-dihydroquinolin-6-yl)sulfamoyl]-N-hydroxybenzamide] | 57.8 ± 0.0 °C | 2.3 ± 0.2 °C | 10.3 µM | –
13 | O=C(CCCCCCC(=O)Nc1ccccc1)NO [vorinostat, reference compound] | 56.4 ± 1.9 °C | – | – | ΔTm at 50 µM [1]: 1.1 ± 2.1 °C; IC50 ([5]; IC50 (μM) PAH): 1.72 ± 0.61 µM; IC50 [8]: […]
14 | COc1ccc2c(c1)N(Cc1ccc(C(=O)NO)cc1)c1ccccc1S2 [KV103, N-Hydroxy-4-[(2-methoxy-10H-Phenothiazin-10-yl)methyl]benzamide] | 59.6 ± 0.7 °C | 4.3 ± 0.5 °C | 49.4 µM | IC50 [3]: 106 ± 177 µM; inhibition of TPH1 activity at 50 μM ([3]; compound 50 μM, 0.5% DMSO): more than 50%; IC50 [4]: 9.78 ± 17.2 µM; IC50 ([5]; read-out: IC50 (μM) PAH): 8.12 ± 1.67 µM; IC50 [6]: 100 ± 128 µM; IC50 [9]: 2.07 ± 0.19 µM; IC50 [10]: 0.01 ± 0.001 µM
15 | Cc1ccc(C(=O)NO)cc1C(=O)Nc1ccc(Cl)cc1 [EG23, 3-(4-Chlorophenylcarbamoyl)-N-hydroxy-4-methylbenzamide] | 58.2 ± 0.2 °C | 2.7 ± 0.2 °C | 14.1 µM | –
16 | O=C(NO)c1coc(C(c2ccccc2)c2ccccc2)n1 [JS32, 2-(diphenylmethyl)-1,3-oxazole-4-carbohydroxamic acid] | 58.5 ± 0.2 ^a °C | 3.1 ± 0.0 °C | 30.9 µM | solubility at the highest concentrations [2]: solubility issues
